Source: paper PMC3672506, “A useful EGFR-TK ligand for tumor diagnosis with SPECT: development of radioiodinated 6-(3-morpholinopropoxy)-7-ethoxy-4-(3′-iodophenoxy)quinazoline” (Annals of Nuclear Medicine, 2013)
Where two headings read alike, the source gives them in different places.

System: A431 tumor
Type: in vivo, balb/c nude mice
Settings: for Blood radioactivity / Brain radioactivity / Heart radioactivity / Kidney radioactivity / Liver radioactivity / Lung radioactivity / Muscle radioactivity / Pancreas radioactivity / Spleen radioactivity / Stomach radioactivity / Tumor radioactivity: A-431 tumor-bearing mice, i.v.
Description: The animals were euthanized 1, 6, 12 or 24 h after injection of the radioligands (37 kBq, 74 TBq/mmol in 0.1 mL saline), and the distributions were studied as described above.
In particular, the radioactivity accumulated in the liver 24 h after injection was approximately 1/50 of the radioactivity 1 h after injection. Thus, tumor-to-organ ratios for [^125I]PYK 24 h after injection had desirable values (Fig. 3b: tumor to lung: 8.5, tumor to kidney: 4.3, tumor to liver: 3.0) for tumor diagnostic imaging.

[1] = A431 tumor-bearing mice, 24 h after injection

Compound: CCOc1cc2ncnc(Oc3cccc([125I])c3)c2cc1OCCCN1CCOCC1 [[^125I]PYK]
- liver radioactivity 24 h after injection relative to 1 h after injection (A431 tumor-bearing mice): approximately 1/50
- tumor to kidney ratio [1]: 4.3
- tumor to liver ratio [1]: 3.0
- tumor to lung ratio [1]: 8.5
- tumor/blood ratio [1]: 57.0
- tumor/muscle ratio [1]: 45.5
- Blood radioactivity (1 h after injection): 0.80 ± 0.14 % injected dose per gram
- Brain radioactivity (1 h after injection): 0.88 ± 0.07 % injected dose per gram
- Heart radioactivity (1 h after injection): 1.19 ± 0.17 % injected dose per gram
- Kidney radioactivity (1 h after injection): 7.40 ± 0.66 % injected dose per gram
- Liver radioactivity (1 h after injection): 27.0 ± 1.29 % injected dose per gram
- Lung radioactivity (1 h after injection): 4.14 ± 0.48 % injected dose per gram
- Muscle radioactivity (1 h after injection): 1.34 ± 0.21 % injected dose per gram
- Pancreas radioactivity (1 h after injection): 2.80 ± 0.19 % injected dose per gram
- Spleen radioactivity (1 h after injection): 2.14 ± 0.04 % injected dose per gram
- Stomach radioactivity (1 h after injection): 6.10 ± 2.08 % injected dose per gram
- Tumor radioactivity (1 h after injection): 4.37 ± 0.65 % injected dose per gram
- Blood radioactivity (6 h after injection): 0.20 ± 0.04 % injected dose per gram
- Brain radioactivity (6 h after injection): 0.17 ± 0.03 % injected dose per gram
- Heart radioactivity (6 h after injection): 0.50 ± 0.04 % injected dose per gram
- Kidney radioactivity (6 h after injection): 3.53 ± 0.72 % injected dose per gram
- Liver radioactivity (6 h after injection): 7.89 ± 1.45 % injected dose per gram
- Lung radioactivity (6 h after injection): 2.29 ± 0.69 % injected dose per gram
- Muscle radioactivity (6 h after injection): 0.39 ± 0.02 % injected dose per gram
- Pancreas radioactivity (6 h after injection): 1.59 ± 0.25 % injected dose per gram
- Spleen radioactivity (6 h after injection): 1.02 ± 0.18 % injected dose per gram
- Stomach radioactivity (6 h after injection): 1.23 ± 0.60 % injected dose per gram
- Tumor radioactivity (6 h after injection): 3.59 ± 0.73 % injected dose per gram
- Blood radioactivity (12 h after injection): 0.06 ± 0.01 % injected dose per gram
- Brain radioactivity (12 h after injection): 0.04 ± 0.01 % injected dose per gram
- Heart radioactivity (12 h after injection): 0.14 ± 0.02 % injected dose per gram
- Kidney radioactivity (12 h after injection): 1.06 ± 0.14 % injected dose per gram
- Liver radioactivity (12 h after injection): 1.55 ± 0.32 % injected dose per gram
- Lung radioactivity (12 h after injection): 0.61 ± 0.18 % injected dose per gram
- Muscle radioactivity (12 h after injection): 0.09 ± 0.02 % injected dose per gram
- Pancreas radioactivity (12 h after injection): 0.41 ± 0.06 % injected dose per gram
- Spleen radioactivity (12 h after injection): 0.21 ± 0.01 % injected dose per gram
- Stomach radioactivity (12 h after injection): 0.69 ± 0.51 % injected dose per gram
- Tumor radioactivity (12 h after injection): 1.72 ± 0.42 % injected dose per gram
- Blood radioactivity (24 h after injection): 0.03 ± 0.00 % injected dose per gram
- Brain radioactivity (24 h after injection): 0.02 ± 0.00 % injected dose per gram
- Heart radioactivity (24 h after injection): 0.05 ± 0.01 % injected dose per gram
- Kidney radioactivity (24 h after injection): 0.36 ± 0.04 % injected dose per gram
- Liver radioactivity (24 h after injection): 0.51 ± 0.35 % injected dose per gram
- Lung radioactivity (24 h after injection): 0.18 ± 0.07 % injected dose per gram
- Muscle radioactivity (24 h after injection): 0.03 ± 0.01 % injected dose per gram
- Pancreas radioactivity (24 h after injection): 0.14 ± 0.02 % injected dose per gram
- Spleen radioactivity (24 h after injection): 0.07 ± 0.03 % injected dose per gram
- Stomach radioactivity (24 h after injection): 0.38 ± 0.19 % injected dose per gram
- Tumor radioactivity (24 h after injection): 1.53 ± 0.15 % injected dose per gram
